As a reminder, the CC50 is the concentration that lowers cell viability or growth by half. A word on the IC50: it is the concentration at which inhibition is half-maximal.

A short description of data set [1]: In vitro preliminary safety assessment: cytotoxicity on THP-1 cells. Type of data set: cell-based. The following applies: human, PMA-treated THP-1 monocytic cells.
For data set [2], the system named is L. donovani promastigotes. Kind of data set: In vitro potency. Type of data set: cell-based. To be noted: Leishmania donovani, 72 h, read-out: IC50 against L. donovani promastigotes.

With `CCCCCCCC/C=C\CCCCCCCCCCCCOP(=O)([O-])OCC[N+](C)(C)C` [Erufosine], in data set [1], the CC50 at 72 h was found to be 19.4 µM. Also, the IC50 in data set [2] came to 9.8 µM.
Turning to `CCCCCCCCCCCCCCCCOP(=O)([O-])OCC[N+](C)(C)C` [Miltefosine], in data set [2], the IC50 is 3.5 µM.

For the origin of these results see paper PMC10312039 (Journal of Enzyme Inhibition and Medicinal Chemistry, 2023).
